How the values were obtained:
MRSA = assay: Adjuvant broth microdilution (antibiotic MIC with SP-BIM at 50 μg/mL); assay type: cell-based, Staphylococcus aureus; details: antibiotic alone, Table 4
Streptococcus pneumoniae [1] = assay: as above; assay type: cell-based; details: Streptococcus pneumonia; antibiotic alone; Table 5
Escherichia coli [2] = assay: Checkerboard synergy (FICI) of antibiotics with SP-BIM; set-up: MIC SP-BIM 13 only / MIC in combination: Antibiotic: unit not given beside the values; details: for MIC antibiotic only: antibiotic alone
Bacillus cereus = assay: as above; assay type: cell-based; details: for MIC antibiotic only: antibiotic alone
Staphylococcus aureus = assay: as above; assay type: cell-based; details: Staphylococcus aureus; for MIC antibiotic only: antibiotic alone
Klebsiella pneumoniae [3] = assay: as above; assay type: cell-based; details: for MIC antibiotic only: antibiotic alone
Enterococcus faecium = assay: as above; assay type: cell-based; details: Enterococcus faecium; for MIC antibiotic only: antibiotic alone
Candida albicans = assay: as above; set-up: MIC SP-BIM 13 only / MIC in combination: Antibiotic / MIC antibiotic only: unit not given beside the values
Klebsiella pneumoniae [4] = assay: Adjuvant broth microdilution (antibiotic MIC with SP-BIM at 50 μg/mL); assay type: cell-based; details: Klebsiella pneumoniae; antibiotic alone; Table 7
Streptococcus pneumoniae [5] = assay: Checkerboard synergy (FICI) of antibiotics with SP-BIM; assay type: cell-based; details: for MIC antibiotic only: antibiotic alone
Escherichia coli [6] = assay: microbe, parasite or virus in culture; assay type: cell-based; details: antibiotic alone, Table 6
Enterococcus faecalis = assay: Adjuvant broth microdilution (antibiotic MIC with SP-BIM at 50 μg/mL); assay type: cell-based; details: antibiotic alone
Escherichia coli O157:H7 = assay: Rescue concentrations of SP-BIM that reactivate antibiotic; assay type: cell-based
clinical strains of MRSA = assay: Kirby Bauer disc diffusion susceptibility profile; assay type: cell-based, Staphylococcus aureus; details: for Zone of clearance: 35° C., 24 hours, average n=3; for Interpretive standard (resistant/susceptible): zones vs EUCAST breakpoints (Table 30)
[7] = MIC of the antibiotic in combination with SP-BIM 13
[8] = SP-BIM 9 concentration in combination with the labelled antibiotic
[9] = SP-BIM 9 in combination with the labelled antibiotic
[10] = SP-BIM 13 in combination with the labelled antibiotic
[11] = antibiotic in combination with SP-BIM 9
[12] = SP-BIM 13 concentration in combination with the labelled antibiotic
[13] = antibiotic in combination with SP-BIM 13
[14] = Streptococcus pneumonia (title: Streptococcus pyogenes), antibiotic + SP-BIM 9
[15] = Streptococcus pneumoniae, antibiotic + SP-BIM 13

CC1=C(C(=O)O)N2C(=O)[C@@H](NC(=O)[C@H](N)c3ccccc3)[C@H]2SC1 [Cephalexin, cefalexin]
MIC of antibiotic, No Compound (MRSA): 16 µg/mL
MIC of antibiotic, No Compound (Streptococcus pneumoniae [1]): 250 µg/mL
MIC in combination: Antibiotic (Escherichia coli [2]; [7]): 125
MIC in combination, SP-BIM 9 (Escherichia coli [2]; [8]): 125 µg/mL
FIC of SP-BIM 9 (Escherichia coli [2]; [9]): 0.5
FIC of SP-BIM 13 (Escherichia coli [2]; [10]): 0.3
Interpretation (Escherichia coli [2]; antibiotic + SP-BIM 9): Synergy (Synergy: FICI≤0.5)
Σ FIC (Escherichia coli [2]; antibiotic + SP-BIM 9): <0.6
Interpretation (Escherichia coli [2]; antibiotic + SP-BIM 13): Additive (Additive: FICI>0.5-1.0)
Σ FIC (Escherichia coli [2]; antibiotic + SP-BIM 13): <0.8
MIC antibiotic only (Escherichia coli [2]): >250
MIC antibiotic only (Escherichia coli [2]; SP-BIM 9 checkerboard): 250 µg/mL
MIC in combination, Antibiotic (Escherichia coli [2]; [11]): 16 µg/mL
FIC of antibiotic (Escherichia coli [2]; combination with SP-BIM 13): 0.5
FIC of antibiotic (Escherichia coli [2]; in combination with SP-BIM 9): 0.064
MIC in combination, SP-BIM 13 (Bacillus cereus; [12]): 32 µg/mL
FIC of SP-BIM 13 (Bacillus cereus; [10]): 0.1
Interpretation (Bacillus cereus; antibiotic + SP-BIM 13): Synergy (Synergy: FICI≤0.5)
Σ FIC (Bacillus cereus; antibiotic + SP-BIM 13): <0.1
MIC antibiotic only (Bacillus cereus; SP-BIM 9 checkerboard): >250 µg/mL
MIC antibiotic only (Bacillus cereus; SP-BIM 13 checkerboard): 250 µg/mL
MIC in combination, Antibiotic (Bacillus cereus; [13]): 4 µg/mL
FIC of antibiotic (Bacillus cereus; in combination with SP-BIM 13): 0.02
MIC in combination, SP-BIM 9 (Staphylococcus aureus; [8]): 16.0 µg/mL
FIC of SP-BIM 9 (Staphylococcus aureus; [9]): 0.06
MIC in combination, SP-BIM 13 (Staphylococcus aureus; [12]): 63 µg/mL
FIC of SP-BIM 13 (Staphylococcus aureus; [10]): 0.5
Interpretation (Staphylococcus aureus; antibiotic + SP-BIM 9): Synergy (Synergy: FICI≤0.5)
Σ FIC (Staphylococcus aureus; antibiotic + SP-BIM 9): <0.19
Interpretation (Staphylococcus aureus; antibiotic + SP-BIM 13): Additive (Additive: FICI>0.5-1.0)
Σ FIC (Staphylococcus aureus; antibiotic + SP-BIM 13): 0.6
MIC antibiotic only (Staphylococcus aureus; SP-BIM 9 checkerboard): 4 µg/mL
MIC antibiotic only (Staphylococcus aureus; SP-BIM 13 checkerboard): 4 µg/mL
MIC in combination, Antibiotic (Staphylococcus aureus; [11]): 0.5 µg/mL
MIC in combination, Antibiotic (Staphylococcus aureus; [13]): 0.5 µg/mL
FIC of antibiotic (Staphylococcus aureus; in combination with SP-BIM 9): 0.13
FIC of antibiotic (Staphylococcus aureus; in combination with SP-BIM 13): 0.1
MIC in combination, SP-BIM 9 (Klebsiella pneumoniae [3]; [8]): 125 µg/mL
FIC of SP-BIM 9 (Klebsiella pneumoniae [3]; [9]): 0.5
MIC in combination, SP-BIM 13 (Klebsiella pneumoniae [3]; [12]): 63 µg/mL
FIC of SP-BIM 13 (Klebsiella pneumoniae [3]; [10]): 0.3
Interpretation (Klebsiella pneumoniae [3]; antibiotic + SP-BIM 9): Synergy (Synergy: FICI≤0.5)
Σ FIC (Klebsiella pneumoniae [3]; antibiotic + SP-BIM 9): <0.5
Interpretation (Klebsiella pneumoniae [3]; antibiotic + SP-BIM 13): Synergy (Synergy: FICI≤0.5)
Σ FIC (Klebsiella pneumoniae [3]; antibiotic + SP-BIM 13): <0.5
MIC antibiotic only (Klebsiella pneumoniae [3]; SP-BIM 9 checkerboard): 250 µg/mL
MIC antibiotic only (Klebsiella pneumoniae [3]; SP-BIM 13 checkerboard): 250 µg/mL
MIC in combination, Antibiotic (Klebsiella pneumoniae [3]; [11]): 4 µg/mL
MIC in combination, Antibiotic (Klebsiella pneumoniae [3]; [13]): 63 µg/mL
FIC of antibiotic (Klebsiella pneumoniae [3]; in combination with SP-BIM 9): 0.016
FIC of antibiotic (Klebsiella pneumoniae [3]; in combination with SP-BIM 13): 0.3
MIC in combination, SP-BIM 13 (Enterococcus faecium; [12]): 63 µg/mL
FIC of SP-BIM 13 (Enterococcus faecium; [10]): 0.5
Interpretation (Enterococcus faecium; antibiotic + SP-BIM 13): Synergy (Synergy: FICI≤0.5)
Σ FIC (Enterococcus faecium; antibiotic + SP-BIM 13): 0.5
MIC antibiotic only (Enterococcus faecium; SP-BIM 9 checkerboard): 250 µg/mL
MIC antibiotic only (Enterococcus faecium; SP-BIM 13 checkerboard): 250 µg/mL
MIC in combination, Antibiotic (Enterococcus faecium; [13]): 8 µg/mL
FIC of antibiotic (Enterococcus faecium; in combination with SP-BIM 13): 0.0
MIC in combination: Antibiotic (Candida albicans; [7]): 63
FIC of SP-BIM 13 (Candida albicans; [10]): 0.5
Interpretation (Candida albicans; antibiotic + SP-BIM 13): Additive (Additive: FICI>0.5-1.0)
Σ FIC (Candida albicans; antibiotic + SP-BIM 13): <0.8
MIC antibiotic only (Candida albicans; antibiotic alone): >250
FIC of antibiotic (Candida albicans; combination with SP-BIM 13): 0.3
MIC of antibiotic, No Compound (Klebsiella pneumoniae [4]): 8 µg/mL
MIC in combination, SP-BIM 9 (Streptococcus pneumoniae [5]; Streptococcus pneumonia (title: Streptococcus pyogenes), SP-BIM 9 concentration in combination with the labelled antibiotic): 125 µg/mL
FIC of SP-BIM 9 (Streptococcus pneumoniae [5]; Streptococcus pneumonia (title: Streptococcus pyogenes), SP-BIM 9 in combination with the labelled antibiotic): 0.50
Interpretation (Streptococcus pneumoniae [5]; [14]): Additive (Additive: FICI>0.5-1.0)
Σ FIC (Streptococcus pneumoniae [5]; [14]): <0.63
MIC antibiotic only (Streptococcus pneumoniae [5]; Streptococcus pneumonia (title: Streptococcus pyogenes), SP-BIM 9 checkerboard): 250 µg/mL
MIC in combination, Antibiotic (Streptococcus pneumoniae [5]; Streptococcus pneumonia (title: Streptococcus pyogenes), antibiotic in combination with SP-BIM 9): 32 µg/mL
FIC of antibiotic (Streptococcus pneumoniae [5]; Streptococcus pneumonia (title: Streptococcus pyogenes), in combination with SP-BIM 9): 0.13
MIC in combination, SP-BIM 13 (Streptococcus pneumoniae [5]; Streptococcus pneumoniae, SP-BIM 13 concentration in combination with the labelled antibiotic): 63 µg/mL
FIC of SP-BIM 13 (Streptococcus pneumoniae [5]; Streptococcus pneumoniae, SP-BIM 13 in combination with the labelled antibiotic): 0.3
Interpretation (Streptococcus pneumoniae [5]; [15]): Synergy (Synergy: FICI≤0.5)
Σ FIC (Streptococcus pneumoniae [5]; [15]): <0.3
MIC antibiotic only (Streptococcus pneumoniae [5]; Streptococcus pneumoniae, SP-BIM 13 checkerboard): 250 µg/mL
MIC in combination, Antibiotic (Streptococcus pneumoniae [5]; Streptococcus pneumoniae, antibiotic in combination with SP-BIM 13): 2 µg/mL
FIC of antibiotic (Streptococcus pneumoniae [5]; Streptococcus pneumoniae, in combination with SP-BIM 13): 0.0
MIC of antibiotic, No Compound (Escherichia coli [6]): >250 µg/mL

NC[C@H]1O[C@H](O[C@H]2[C@H](O)[C@@H](O[C@H]3O[C@H](CO)[C@@H](O)[C@H](N)[C@H]3O)[C@H](N)C[C@@H]2N)[C@H](O)[C@@H](O)[C@@H]1O [Kanamycin, kanamycin]
MIC of antibiotic, No Compound (Enterococcus faecalis): 250 µg/mL
MIC of Kanamycin in combination with 32 μg/mL SP-BIM 28 (Escherichia coli O157:H7; E. coli O157:H7, with 32 μg/mL SP-BIM 28): 1 µg/mL
MIC (Escherichia coli O157:H7; Escherichia coli, read-out: MIC of Kanamycin): 8 µg/mL
Zone of clearance (clinical strains of MRSA; MRSA strain 1594): 11.5 mm
Interpretive standard (resistant/susceptible) (clinical strains of MRSA; MRSA strain 1594): R
Zone of clearance (clinical strains of MRSA; MRSA strain 1621): 19.5 mm
Interpretive standard (resistant/susceptible) (clinical strains of MRSA; MRSA strain 1621): S
Zone of clearance (clinical strains of MRSA; MRSA strain 5455): 19.5 mm
Interpretive standard (resistant/susceptible) (clinical strains of MRSA; MRSA strain 5455): S
Zone of clearance (clinical strains of MRSA; MRSA strain 5872): 0.0 mm
Interpretive standard (resistant/susceptible) (clinical strains of MRSA; MRSA strain 5872): R
Zone of clearance (clinical strains of MRSA; MRSA strain 7153): 19.5 mm
Interpretive standard (resistant/susceptible) (clinical strains of MRSA; MRSA strain 7153): S
Zone of clearance (clinical strains of MRSA; MRSA strain 7172): 20.5 mm
Interpretive standard (resistant/susceptible) (clinical strains of MRSA; MRSA strain 7172): S
Zone of clearance (clinical strains of MRSA; MRSA strain 7698): 8.5 mm
Interpretive standard (resistant/susceptible) (clinical strains of MRSA; MRSA strain 7698): R
Zone of clearance (clinical strains of MRSA; MRSA strain 10132): 8.0 mm
Interpretive standard (resistant/susceptible) (clinical strains of MRSA; MRSA strain 10132): R
